Laboratory results: ChEMBL document CHEMBL3880416, “Inhibitors of AKT Activity” (2011)

What follows are compounds tested against RAC-alpha serine/threonine-protein kinase (Homo sapiens, UniProt P31749) (assay: Inhibition of full length human AKT1 expressed in Sf9 cells assessed as reduction in substrate phosphorylation using biotin-ahx-ARKRERAYSFGHHA-amide substrate and [gamma-33P]ATP incubated for 40 mins by top count microplate scintillation counting method).
RAC-alpha serine/threonine-protein kinase, sequence (P31749 whole entry): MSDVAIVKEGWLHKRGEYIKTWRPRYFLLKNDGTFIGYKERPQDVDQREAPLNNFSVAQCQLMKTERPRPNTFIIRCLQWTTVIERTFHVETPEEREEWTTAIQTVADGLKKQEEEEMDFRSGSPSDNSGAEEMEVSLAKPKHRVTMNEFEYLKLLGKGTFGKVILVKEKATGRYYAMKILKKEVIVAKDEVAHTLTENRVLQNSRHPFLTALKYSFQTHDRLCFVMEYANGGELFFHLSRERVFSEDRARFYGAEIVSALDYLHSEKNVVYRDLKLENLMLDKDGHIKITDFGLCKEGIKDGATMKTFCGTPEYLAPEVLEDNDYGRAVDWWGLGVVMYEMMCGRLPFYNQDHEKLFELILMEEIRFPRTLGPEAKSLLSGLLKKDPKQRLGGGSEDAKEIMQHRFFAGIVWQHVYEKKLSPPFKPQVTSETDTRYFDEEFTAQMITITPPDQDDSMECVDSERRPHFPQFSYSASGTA

IC50	SMILES
≤ 2.51 nM	Cn1ncc(Br)c1-c1cc(C(=O)N[C@H](CN)Cc2ccccc2C(F)(F)F)sc1Cl
≤ 2.51 nM	Cn1ncc(Cl)c1-c1cc(C(=O)N[C@H](CN)Cc2ccccc2C(F)(F)F)sc1Cl
≤ 2.51 nM	CCn1ncc(Cl)c1-c1cc(C(=O)N[C@H](CN)Cc2ccc(F)c(F)c2)oc1Cl
≤ 2.51 nM	Cn1ncc(Cl)c1-c1cc(C(=O)N[C@H](CN)Cc2ccccc2C(F)(F)F)oc1Cl
≤ 2.51 nM	Cn1ncc(Br)c1-c1cc(C(=O)N[C@H](CN)Cc2ccc(F)cc2)sc1Cl
≤ 2.51 nM	CCc1sc(C(=O)N[C@H](CN)Cc2cccc(F)c2)cc1-c1c(Cl)cnn1C
≤ 2.51 nM	Cn1ncc(Br)c1-c1cc(C(=O)N[C@H](CN)Cc2cccc(C(F)(F)F)c2)sc1Cl
≤ 2.51 nM	Cn1ncc(Br)c1-c1cc(C(=O)N[C@H](CN)Cc2cccc(F)c2)sc1Cl
≤ 2.51 nM	Cn1nccc1-c1cc(C(=O)N[C@H](CN)Cc2ccc(F)c(F)c2)oc1Cl
≤ 2.51 nM	CCn1ncc(Cl)c1-c1cc(C(=O)N[C@H](CN)Cc2ccc(F)cc2)sc1Cl
≤ 2.51 nM	Cc1cnn(C)c1-c1cc(C(=O)N[C@H](CN)Cc2cccc(F)c2)sc1Cl
≤ 2.51 nM	Cn1nccc1-c1cc(C(=O)N[C@H](CN)Cc2cccc(F)c2)sc1Cl
≤ 2.51 nM	Cc1cnn(C)c1-c1cc(C(=O)N[C@H](CN)Cc2ccccc2C(F)(F)F)sc1Cl
1.58 to 2.51 nM	Cn1ncc(Cl)c1-c1cc(C(=O)N[C@H](CN)Cc2ccc(F)c(F)c2)sc1Cl
≤ 2.51 nM	COc1sc(C(=O)N[C@H](CN)Cc2cccc(F)c2)cc1-c1c(Cl)cnn1C
≤ 2.51 nM	Cc1cnn(C)c1-c1cc(C(=O)N[C@H](CN)Cc2cccc(F)c2)oc1Cl
≤ 2.51 nM	CCn1ncc(Cl)c1-c1cc(C(=O)N[C@H](CN)Cc2ccc(F)c(F)c2)sc1Cl

Each compound was assayed against RAC-gamma serine/threonine-protein kinase (Homo sapiens, UniProt Q9Y243) (assay: Inhibition of full length human AKT3 expressed in Sf9 cells assessed as reduction in substrate phosphorylation using biotin-ahx-ARKRERAYSFGHHA-amide substrate and [gamma-33P]ATP incubated for 40 mins by top count microplate scintillation counting method).
RAC-gamma serine/threonine-protein kinase, sequence (Q9Y243 whole entry): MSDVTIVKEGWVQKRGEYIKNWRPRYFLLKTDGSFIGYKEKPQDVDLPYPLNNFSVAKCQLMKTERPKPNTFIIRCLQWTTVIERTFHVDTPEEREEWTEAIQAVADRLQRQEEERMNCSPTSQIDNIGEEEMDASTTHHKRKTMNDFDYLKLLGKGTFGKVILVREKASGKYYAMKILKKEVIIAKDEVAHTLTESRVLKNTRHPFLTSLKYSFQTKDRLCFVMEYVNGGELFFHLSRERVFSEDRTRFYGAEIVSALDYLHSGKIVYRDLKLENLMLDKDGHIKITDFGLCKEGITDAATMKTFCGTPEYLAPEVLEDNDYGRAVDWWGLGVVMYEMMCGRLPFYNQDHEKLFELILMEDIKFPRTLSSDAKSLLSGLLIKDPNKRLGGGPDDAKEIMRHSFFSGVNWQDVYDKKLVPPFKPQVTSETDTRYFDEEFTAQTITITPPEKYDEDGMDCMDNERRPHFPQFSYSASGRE

IC50	SMILES
3.16 to 25.1 nM	Cn1ncc(Cl)c1-c1cc(C(=O)N[C@H](CN)Cc2ccc(F)c(F)c2)sc1Cl
